The values below come from patent US7807673B2, “2-pyrimidinyl pyrazolopyridine ErbB kinase inhibitors” (GlaxoSmithKline LLC, priority 2005, dated 2010).

The IC50 is the concentration at which inhibition is half-maximal. The low end stands for greater potency in that assay, the high end for weaker potency in that assay.

For one assay, the target named is T1, ErbB2 or EGFR.
T1 construct: enzymes purified from a baculovirus expression system
Nature of the assay: ErbB enzyme substrate phosphorylation assay (HTRF), Method B (enzyme pre-incubated with compound 1 hour). In kind it is biochemical. Conditions: Table 1, enzyme Method B: enzyme mix incubated with compound 1 hour at 20° C., reaction started with substrate mix; class over ErbB2 or EGFR. The protocol:
Compounds of the present invention were tested for EGFR, ErbB-2, and ErbB-4 protein tyrosine kinase inhibitory activity in substrate phosphorylation assays using enzymes purified from a baculovirus expression system. Reagent production was conducted essentially as described in Brignola, P. S., et al, (2002) J. Biol. Chem. 277(2): 1576-1585.
The method measures the ability of the isolated enzyme to catalyse the transfer of the gamma-phosphate from ATP onto the tyrosine residue of a biotinylated synthetic peptide referenced “Peptide C” in Brignola, P. S., et al, (2002) J. Biol. Chem. 277(2):1576-1585. The extent of tyrosine phosphorylation was measured using an anti-phosphotyrosine antibody, and quantified by homogenous time-resolved fluorescence (HTRF).
Reactions were performed in black 384-well polystyrene flat-bottom plates in a final volume of 20 μl. Assays were performed by adding 10 μl of each of the following solutions, substrate Mix and enzyme mix: The Substrate mix contained 100 mM 3-[N-morpholino]propanesulfonic acid (MOPS) (pH 7.5), 2 mM MnCl2, 20 μM ATP, 0.01% Tween-20, 0.1 mg/mL (BSA), 0.8 uM peptide substrate, and 1 mM dithiothreitol. The enzyme mix contained 100 mM MOPS (pH7.5); 0.01% Tween-20; 0.1 mg/mL BSA, and either 0.8 nM EGFR, 10 nM ErbB2, or 1 nM ErbB4
During the course of these studies, two separate methods have been used to measure the potency of compounds. In Method A, the substrate mix was added to the compound plates first, then the reaction was started by adding the enzyme mix. In Method B, the enzyme mix was added to the compound plates and the plates were incubated at 20° C. for 1 hour. The reactions were then started by adding the substrate mix.
After initiating the reaction with either method describe above, the reactions were allowed to proceed for 90 minutes at 20° C. The reactions were then terminated by the addition of 20 μl 100 mM EDTA to each well. 40 μl/well of HTRF detection mix were added to the assay plates. The final concentrations of the detection reagents were: 100 mM HEPES (pH7.5), 0.1 mg/mL BSA, 15 nM streptavidin-labeled allophycocyanin (PerkinElmer), and 1 nM europium-labeled anti-phosphotyrosine antibody (PerkinElmer). Assay plates were left unsealed and were counted in a Wallac Multilabel Counter 1420 (PerkinElmer).
Compounds under analysis were dissolved in Me2SO to 1.0 mM and serially diluted 1 to 3 with Me2SO through twelve dilutions. 1 μl of each concentration was transferred to the corresponding well of an assay plate. This creates a final compound concentration range from 0.00027 to 47.6 μM.
The data for dose responses were plotted as % Inhibition calculated with the data reduction formula 100*(1−(U1−C2)/(C1−C2)) versus concentration of compound where U is the unknown value, C1 is the average control value obtained for 4.76% DMSO, and C2 is the average control value obtained for 0.035 M EDTA. Data were fitted with a curve described by: y=((Vmax*x)/(K+x))+Y2 where Vmax is the upper asymptote, Y2 is the Y intercept, and K is the IC50. The results for each compound were recorded as pIC50s, calculated as follows: pIC50=−Log 10(K)

Assay [1] concerns BT474 and HN5 tumor cell lines. Nature of the assay: Celltiter Glo growth inhibition assay (cellular Method B). In kind it is cell-based. The settings on record: Homo sapiens, BT-474, 72 h; Table 2, Method B Celltiter Glo, 3 days; class over BT474 and HN5. The protocol:
(§1) Human breast tumor cells (BT474) were cultured in RPMI, (Invitrogen, 22400) containing 10% fetal bovine serum (FBS). Human head and neck tumor cells (HN5) were cultured in low glucose DMEM (Invitrogen, 12320) containing 10% FBS. Human colon tumor cells (Colo205) were cultured in DMEM (Invitrogen, 10564) containing 10% FBS. All cell lines were maintained at 37° C. in a humidified 5% CO2, 95% air incubator. Cells were harvested using trypsin/EDTA, counted using a haemocytometer, and plated in 30 microliters of the appropriate media described above, at the following densities, in a half area, black-walled, 96-well tissue culture plate (Corning 3882): BT474 3,000 cells/well, HN5 500 cells/well and Colo205 cells, 3,000 cells/well. The next day, compounds were diluted in DMEM containing 100 mg/ml gentamicin, from 10 mM stock solutions in DMSO. 30 microliters/well of these dilutions were added to the 30 microliters/well of media currently on the cell plates. Medium containing 0.6% DMSO was added to control wells. The final concentration of DMSO in all wells was 0.3%. Cells were incubated at 37° C., 5% CO2 for 3 days. Cell biomass was estimated using Celltiter Glo (Promega G7571). Briefly, plates were removed from the incubator and allowed to equilibrate to rt for 30 minutes. 60 microliters of Celltiter Glo reagent were added to each well of the treated cells and plates were shaken on an orbital plate shaker for 2 min. Plates were incubated without shaking for 30 more min and read in a luminometer with an integration time of 0.5 seconds per well. Percent inhibition of cell growth was calculated relative to vehicle treated control wells. Concentration of compound that inhibits 50% of vehicle control cell growth (IC50) was interpolated using nonlinear regression (Levenberg-Marquardt) and the equation, y=Vmax*(1−(x/(K+x)))+Y2, where “K” was equal to the IC50.
For orientation: Cellular ATP, detected with luciferase, serves as a proxy for viable cell number.

In the next assay the test system is Colo205 tumor cell lines. The assay is described as above. Format: cell-based. Conditions: Homo sapiens, COLO 205, 72 h, Table 3, Method B Celltiter Glo, 3 days. How it is done:
as §1

Where only a bound is given, the exact number is not on record here.

For the molecule `CN1CCc2ccc(Nc3nccc(-c4c(-c5cccc(NC(=O)Cc6cccs6)c5)nn5cc(F)ccc45)n3)cc2C1` [Example 35, N-[3-(6-fluoro-3-{2-[(2-methyl-1,2,3,4-tetrahydro-7-isoquinolinyl)amino]-4-pyrimidinyl}pyrazolo[1,5-a]pyridin-2-yl)phenyl]-2-(2-thienyl)acetamide], the “Activity (Method)” value on ErbB2 or EGFR is reported as “++ (B) (at least one pIC50 measurement greater than 6 against either ErbB2 or EGFR but no measurement greater than pIC50 of 7)”. Also, the IC50 in assay [1] was 100 to 1000 nM; in the assay on Colo205 tumor cell lines, above 1000 nM.
On the same counts, the results for `CN(C)Cc1cccc(Nc2nccc(-c3c(-c4ccc(F)c(NC(=O)Cc5cccs5)c4)nn4ccccc34)n2)c1` [Example 36, N-(5-{3-[2-({3-[(dimethylamino)methyl]phenyl}amino)-4-pyrimidinyl]pyrazolo[1,5-a]pyridin-2-yl}-2-fluorophenyl)-2-(2-thienyl)acetamide] are “++ (B) (at least one pIC50 measurement greater than 6 against either ErbB2 or EGFR but no measurement greater than pIC50 of 7)”, 100 to 1000 nM and 100 to 1000 nM.
On the same counts, the results for `CN(C)C1Cc2ccc(Nc3nccc(-c4c(-c5ccc(F)c(NC(=O)Cc6cccs6)c5)nn5ccccc45)n3)cc2C1` (stereo not drawn) [Example 37, N-{5-[3-(2-{[2-(dimethylamino)-2,3-dihydro-1H-inden-5-yl]amino}-4-pyrimidinyl)pyrazolo[1,5-a]pyridin-2-yl]-2-fluorophenyl}-2-(2-thienyl)acetamide] are “+++ (B) (at least one pIC50 measurement of greater than 7 against either ErbB2 or EGFR)”, below 100 nM and 100 to 1000 nM.
On the same counts, the results for `CN(C)CCOc1cccc(Nc2nccc(-c3c(-c4ccc(F)c(NC(=O)Cc5cccs5)c4)nn4ccccc34)n2)c1` [Example 38, N-[5-(3-{2-[(3-{[2-(dimethylamino)ethyl]oxy}phenyl)amino]-4-pyrimidinyl}pyrazolo[1,5-a]pyridin-2-yl)-2-fluorophenyl]-2-(2-thienyl)acetamide] are “++ (B) (at least one pIC50 measurement greater than 6 against either ErbB2 or EGFR but no measurement greater than pIC50 of 7)”, 100 to 1000 nM and 100 to 1000 nM.
For the molecule `CN(C)CCNCc1cccc(Nc2nccc(-c3c(-c4cccc(NC(=O)Cc5cccs5)c4)nn4ccccc34)n2)c1` [Example 40, N-{3-[3-(2-{[3-({[2-(dimethylamino)ethyl]amino}methyl)phenyl]-amino}-4-pyrimidinyl)pyrazolo[1,5-a]pyridin-2-yl]phenyl}-2-(2-thienyl)acetamide], the “Activity (Method)” value at ErbB2 or EGFR is “+++ (B) (at least one pIC50 measurement of greater than 7 against either ErbB2 or EGFR)”. Besides, the IC50 (in assay [1]; in the assay on Colo205 tumor cell lines) was 100 to 1000 nM in each case.
In the case of `CS(=O)(=O)CCNCc1cccc(Nc2nccc(-c3c(-c4cccc(NC(=O)Cc5cccs5)c4)nn4ccccc34)n2)c1` [Example 41, N-{3-[3-(2-{[3-({[2-(Methylsulfonyl)ethyl]amino}methyl)phenyl]-amino}-4-pyrimidinyl)pyrazolo[1,5-a]pyridin-2-yl]phenyl}-2-(2-thienyl)acetamide], the “Activity (Method)” value at ErbB2 or EGFR is recorded as “+++ (B) (at least one pIC50 measurement of greater than 7 against either ErbB2 or EGFR)”. Also, the IC50 (in assay [1]; in the assay with Colo205 tumor cell lines) was 100 to 1000 nM in each case.
In the case of `NCc1cccc(Nc2nccc(-c3c(-c4cccc(NC(=O)Cc5cccs5)c4)nn4ccccc34)n2)c1` [Example 42, N-{3-[3-(2-{[3-(Aminomethyl)phenyl]amino}-4-pyrimidinyl)pyrazolo[1,5-a]pyridin-2-yl]phenyl}-2-(2-thienyl)acetamide], on ErbB2 or EGFR, the “Activity (Method)” value is “+++ (B) (at least one pIC50 measurement of greater than 7 against either ErbB2 or EGFR)”. Also, the IC50 in assay [1] is 100 to 1000 nM; in the assay on Colo205 tumor cell lines, above 1000 nM.
With `CN1CCC(N(C)CCOc2cc(Nc3nccc(-c4c(-c5cccc(NC(=O)Cc6cccs6)c5)nn5ccccc45)n3)ccc2Cl)C1` (stereo not drawn) [Example 46, N-{3-[3-(2-{[4-Chloro-3-({2-[methyl(1-methyl-3-pyrrolidinyl)amino]-ethyl}oxy)phenyl]amino}-4-pyrimidinyl)pyrazolo[1,5-a]pyridin-2-yl]phenyl}-2-(2-thienyl)acetamide], the “Activity (Method)” value at ErbB2 or EGFR is listed as “+++ (B) (at least one pIC50 measurement of greater than 7 against either ErbB2 or EGFR)”. Further, the IC50 (in assay [1]; in the assay on Colo205 tumor cell lines) was above 1000 nM throughout.
For the molecule `COc1ccc(Nc2nccc(-c3c(-c4cccc(NC(=O)Cc5cccs5)c4)nn4ccccc34)n2)cc1N1CCN(CCS(C)(=O)=O)CC1` [Example 47, N-[3-(3-{2-[(4-(Methyloxy)-3-{4-[2-(methylsulfonyl)ethyl]-1-piperazinyl}phenyl)amino]-4-pyrimidinyl}pyrazolo[1,5-a]pyridin-2-yl)phenyl]-2-(2-thienyl)acetamide], the “Activity (Method)” value at ErbB2 or EGFR is “+++ (B) (at least one pIC50 measurement of greater than 7 against either ErbB2 or EGFR)”. Besides, the concentration for half-maximal inhibition (IC50) was 100 to 1000 nM in assay [1] and below 100 nM with Colo205 tumor cell lines.
On the same counts, the results for `COc1ccc(-c2nn3ccccc3c2-c2ccnc(Nc3ccc4c(c3)CC(N(C)C)C4)n2)cc1NC(=O)Cc1cccs1` (stereo not drawn) [Example 48, N-{5-[3-(2-{[2-(Dimethylamino)-2,3-dihydro-1H-inden-5-yl]amino}pyrimidin-4-yl)pyrazolo[1,5-a]pyridin-2-yl]-2-methoxyphenyl}-2-(2-thienyl)acetamide] are “+ (B) (no pIC50 measurement greater than 6 against either ErbB2 or EGFR)”, 100 to 1000 nM and 100 to 1000 nM.
The corresponding values for `COc1ccc(-c2nn3ccccc3c2-c2ccnc(Nc3ccc4c(c3)CN(C)CC4)n2)cc1NC(=O)Cc1cccs1` [Example 49, N-[2-Methoxy-5-(3-{2-[(2-methyl-1,2,3,4-tetrahydroisoquinolin-7-yl)amino]pyrimidin-4-yl}pyrazolo[1,5-a]pyridin-2-yl)phenyl]-2-(2-thienyl)acetamide] are “+ (B) (no pIC50 measurement greater than 6 against either ErbB2 or EGFR)”, above 1000 nM and 100 to 1000 nM.
